Measurements as given in article PMC9657303, “Phenylethanoid and Phenylmethanoid Glycosides from the Leaves of Ligustrum robustum and Their Bioactivities” (Molecules, 2022).

Experiments:
FAS = molecular target: T1, FAS (Gallus gallus, UniProt P12276); experiment: FAS inhibitory activity; assay type: biochemical, chicken; details: mean ± SD (n = 3); NA: no activity
T1 construct: isolated from chicken liver; from tissue; host or cells: chicken liver
Protocol: S1. Determination of bioactivities
S1.1. Determination of FAS inhibitory activity […]
diluted with potassium phosphate buffer (0.1 M, pH 7.0). Sample solution (100 µL, 20-2000 μM, 37 °C) and FAS substrates (1.8 mL, 37 °C) were mixed in a cuvette, and then FAS solution (100 µL, 37 °C, isolated from chicken liver and kept in ice-bath before use) was added. The absorbance of reaction mixture was monitored by a UV-vis spectrophotometer at340 nm in 1 min. The inhibitory effect was calculated by the following equation: FAS inhibition (%) = (Acontrol-Asample)/Acontrol× 100%, where Acontrolrepresented the FAS activity in the control group (phosphate buffer instead of sample solution), Asamplerepresented the FAS activity in the sample groups. The FAS activity was calculated as (A0 -A1)/1 min, in which A0 was the absorbance of the reaction mixture when the FAS was added, and A1 was the absorbance of the reaction mixture after reaction 1 min. Orlistat was used as the positive control.
FAS substrates: 0.1 M potassium phosphate buffer (pH 7.0), 1 mM ethylene-diaminetetraacetic acid (EDTA), 1 mM dithiothreitol, 3 µM acetyl-coenzyme A, 10 µM […], 35 µM NADPH. […]

α-amylase = α-amylase inhibitory activity; assay type: biochemical; details: for α-Amylase Inhibition at 0.1 mM: mean ± SD (n = 3), NA: no activity; for α-amylase inhibitory effects (in words): weaker than the positive control acarbose
Protocol: S1.3. Determination of α-amylase inhibitory activity
Phosphate buffer (20 mM, pH 6.9, containing 6 mM NaCl) was used as the […]
µL, 1%, w/v) were mixed and incubated in a 96-well microplate at37 °C for 10 min.
Then, α-amylase solution (50 µL, 0.2 U/mL) was added and the mixture was incubated at 37 °C for an additional 10 min. The reaction was stopped by addition of […]
microplate was immediately heated in 95 °C water bath for 10 min. When the reaction solution cooled to room temperature, allsamples were diluted by adding distilled water (50 µL), and then their absorbance was measured using a microplate reader at […]
starch solution) at 540 nm, thus the inhibitory activity was calculated as (Acontrol-Asample)/Acontrol×100%, in which Asample was the absorbance of the sample and Acontrol was the absorbance of the phosphate buffer control without test samples. Acarbose was used as the positive control.
(§1) S1.4. DPPH radical scavenging assay […]

[1] = ABTS radical scavenging assay; details: mean ± SD (n = 3)
Protocol: as §1
S1.5. ABTS radical scavenging assay
The ABTS radical scavenging assay was used also to evaluate the antioxidant activity of compounds 1-11. The ABTS free radical cation (ABTS•+ )was manufactured by reacting ABTS stock solution (7 mM) with potassium persulphate

[2] = DPPH radical scavenging assay; details: mean ± SD (n = 3); NA: no activity
Protocol: S1.4. DPPH radical scavenging assay
The DPPH radical scavenging assay was used to evaluate the antioxidant activity of compounds 1-11. In a 96-well microplate, 100 µL of DPPH solution (200 µM in ethanol) was added to 100 µL sample in ethanol at graded concentrations ranging from 7 to 500 µM. The mixture was incubated in the dark at room temperature for 30 min. The absorbance of the reaction mixture was measured at 517 nm using a microplate reader. The DPPH scavenging activity was calculated by the following formula: DPPH scavenging activity (%) = (Acontrol- Asample)/Acontrol×100%, where Acontrol was the absorbance of ethanol control without samples, Asample was the absorbance of sample. Ascorbic acid was used as the positive control in the […]

α-Glucosidase from yeast = experiment: α-glucosidase inhibitory activity; assay type: biochemical; details: for α-Glucosidase Inhibition at 0.1 mM: mean ± SD (n = 3), NA: no activity; for α-glucosidase inhibitory effects (in words): weaker than the positive control acarbose
Protocol: S1. Determination of bioactivities […]
S1.2. Determination of α-glucosidase inhibitory activity […]
diluted with phosphate buffer (0.1 M, pH 6.8). […]
and 4-nitrophenyl α-D-glucopyranoside (pNPG) solution (50 µL, 5 mM) were mixed and incubated in a 96-well microplate at 37 °C for 5 min. α-Glucosidase from yeast (50 µL, 0.2 U/mL) was added and incubated at 37 °C for another 30 min. Finally, 50 µL of Na2CO3 (1M) was added to terminate the reaction. The absorbance of mixture was measured using a microplate reader at a wavelength 405 nm. […]
following equation: α-glucosidase inhibition (%) = (Acontrol- Asample)/Acontrol×100%, where Acontrolrepresented the absorbance of phosphate buffer control without test samples, Asample represented the absorbance of test samples. Acarbose was used as the […]

T1 sequence (P12276 2-2512 limits assumed): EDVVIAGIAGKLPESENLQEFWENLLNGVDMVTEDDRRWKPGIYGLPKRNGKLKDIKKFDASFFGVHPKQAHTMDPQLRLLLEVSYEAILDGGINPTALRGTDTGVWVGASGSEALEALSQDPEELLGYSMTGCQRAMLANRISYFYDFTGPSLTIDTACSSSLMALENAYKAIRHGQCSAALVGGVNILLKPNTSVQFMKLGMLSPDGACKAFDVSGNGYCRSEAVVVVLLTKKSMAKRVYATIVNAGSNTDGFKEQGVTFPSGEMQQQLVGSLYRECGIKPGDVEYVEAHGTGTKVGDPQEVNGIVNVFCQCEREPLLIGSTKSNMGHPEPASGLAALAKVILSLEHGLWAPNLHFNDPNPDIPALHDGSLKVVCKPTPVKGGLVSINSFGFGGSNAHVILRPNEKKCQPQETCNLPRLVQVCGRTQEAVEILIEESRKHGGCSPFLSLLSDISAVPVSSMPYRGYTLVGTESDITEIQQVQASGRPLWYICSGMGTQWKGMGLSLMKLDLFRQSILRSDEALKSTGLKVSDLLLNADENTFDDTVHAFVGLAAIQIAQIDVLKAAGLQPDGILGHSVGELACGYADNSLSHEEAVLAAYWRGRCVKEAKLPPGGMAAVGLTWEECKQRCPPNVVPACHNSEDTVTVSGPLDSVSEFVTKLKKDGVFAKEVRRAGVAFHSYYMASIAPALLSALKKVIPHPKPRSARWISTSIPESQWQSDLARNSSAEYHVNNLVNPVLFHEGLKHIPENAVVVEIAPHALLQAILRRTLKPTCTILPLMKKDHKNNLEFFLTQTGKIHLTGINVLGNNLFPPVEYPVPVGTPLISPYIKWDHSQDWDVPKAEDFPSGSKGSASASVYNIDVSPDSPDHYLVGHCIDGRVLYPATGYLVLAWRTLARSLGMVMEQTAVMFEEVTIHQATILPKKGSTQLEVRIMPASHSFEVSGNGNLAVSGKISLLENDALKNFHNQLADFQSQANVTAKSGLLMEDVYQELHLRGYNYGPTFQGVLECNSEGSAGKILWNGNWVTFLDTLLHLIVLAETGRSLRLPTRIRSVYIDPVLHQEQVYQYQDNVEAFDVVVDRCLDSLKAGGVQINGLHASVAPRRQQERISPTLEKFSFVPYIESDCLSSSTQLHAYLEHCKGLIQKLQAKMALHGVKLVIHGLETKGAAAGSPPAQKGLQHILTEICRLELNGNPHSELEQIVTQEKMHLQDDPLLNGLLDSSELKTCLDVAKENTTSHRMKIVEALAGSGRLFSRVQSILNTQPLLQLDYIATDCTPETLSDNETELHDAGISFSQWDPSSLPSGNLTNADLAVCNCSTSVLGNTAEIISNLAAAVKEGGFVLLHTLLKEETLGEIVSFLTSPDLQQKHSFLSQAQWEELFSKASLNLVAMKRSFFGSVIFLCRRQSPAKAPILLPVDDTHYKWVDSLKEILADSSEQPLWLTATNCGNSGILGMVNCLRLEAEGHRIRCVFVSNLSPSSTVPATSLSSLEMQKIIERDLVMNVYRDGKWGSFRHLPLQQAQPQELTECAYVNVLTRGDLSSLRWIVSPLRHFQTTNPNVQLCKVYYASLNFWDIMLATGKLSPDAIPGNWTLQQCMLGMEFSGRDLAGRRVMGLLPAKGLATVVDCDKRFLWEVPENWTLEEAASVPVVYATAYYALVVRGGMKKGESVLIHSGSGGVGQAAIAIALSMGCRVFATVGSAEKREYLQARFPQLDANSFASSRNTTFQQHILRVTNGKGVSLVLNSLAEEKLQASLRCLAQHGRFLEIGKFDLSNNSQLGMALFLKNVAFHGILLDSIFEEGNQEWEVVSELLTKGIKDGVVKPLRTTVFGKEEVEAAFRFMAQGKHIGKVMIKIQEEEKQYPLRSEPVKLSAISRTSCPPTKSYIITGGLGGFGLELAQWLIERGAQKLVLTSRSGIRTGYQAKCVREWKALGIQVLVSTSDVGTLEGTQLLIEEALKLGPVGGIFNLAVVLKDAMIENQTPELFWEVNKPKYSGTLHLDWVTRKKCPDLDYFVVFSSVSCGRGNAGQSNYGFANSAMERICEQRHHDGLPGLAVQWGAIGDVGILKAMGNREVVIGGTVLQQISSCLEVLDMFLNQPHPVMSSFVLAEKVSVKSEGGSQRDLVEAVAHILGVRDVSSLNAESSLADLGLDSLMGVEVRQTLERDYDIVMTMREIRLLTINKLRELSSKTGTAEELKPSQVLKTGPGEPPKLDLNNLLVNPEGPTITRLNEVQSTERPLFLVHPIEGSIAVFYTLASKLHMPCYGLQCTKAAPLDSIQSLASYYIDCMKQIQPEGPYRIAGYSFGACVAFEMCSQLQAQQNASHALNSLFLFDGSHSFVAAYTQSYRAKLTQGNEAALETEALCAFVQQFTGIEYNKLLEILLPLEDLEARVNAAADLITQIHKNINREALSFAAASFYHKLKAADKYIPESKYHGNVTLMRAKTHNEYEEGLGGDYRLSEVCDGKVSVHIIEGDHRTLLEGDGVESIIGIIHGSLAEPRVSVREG

CC1OC(OC2C(O)C(COC(=O)C=Cc3ccc(O)cc3)OC(OCCc3ccc(O)cc3)C2O)C(O)C(O)C1O (stereo not drawn) [Compound 11, (Z)-osmanthuside B6]
IC50 (FAS): 4.55 ± 0.35 µM | α-Amylase Inhibition at 0.1 mM (α-amylase): 23.5 ± 1.7 c % | α-amylase inhibitory effects (in words) (α-amylase): moderate | IC50 [1]: 3.83 ± 0.05 µM | IC50 [2]: > 250 µM

CC1OC(OC2C(O)C(OCCc3ccc(O)cc3)OC(CO)C2OC(=O)C=Cc2ccc(O)cc2)C(O)C(O)C1O (stereo not drawn) [Compound 10, osmanthuside D]
α-Glucosidase Inhibition at 0.1 mM (α-Glucosidase from yeast): 19.3 ± 5.6 e % | α-Amylase Inhibition at 0.1 mM (α-amylase): 26.1 ± 1.9 c % | α-amylase inhibitory effects (in words) (α-amylase): moderate | IC50 [1]: 3.34 ± 0.02 µM | IC50 [2]: > 250 µM

CC1OC(OC2C(C)OC(OC3C(O)C(OCC(O)c4ccc(O)c(O)c4)OC(CO)C3OC(=O)C=Cc3ccc(O)cc3)C(O)C2O)C(O)C(O)C1O (stereo not drawn) [Compound 2]
α-Amylase Inhibition at 0.1 mM (α-amylase): 10.6 ± 2.3 f % | IC50 [1]: 10.6 ± 0.48 µM | IC50 [2]: 43.2 ± 1.06 µM

C[C@@H]1O[C@@H](O[C@@H]2[C@@H](O)[C@@H](O)[C@H](O[C@@H]3[C@@H](O)[C@H](OCCc4ccc(O)cc4)O[C@H](CO)[C@H]3OC(=O)/C=C/c3ccc(O)c(O)c3)O[C@H]2C)[C@H](O)[C@H](O)[C@H]1O [Compound 9, ligurobustoside N]
IC50 (FAS): 5.61 ± 0.44 µM | α-Glucosidase Inhibition at 0.1 mM (α-Glucosidase from yeast): 25.4 ± 4.1 d % | α-Amylase Inhibition at 0.1 mM (α-amylase): 15.9 ± 3.1 e % | IC50 [1]: 2.68 ± 0.05 µM | IC50 [2]: 29.2 ± 0.37 µM

C[C@@H]1O[C@@H](O[C@@H]2[C@@H](O)[C@@H](O)[C@H](O[C@@H]3[C@@H](O)[C@H](OCCc4ccc(O)cc4)O[C@H](CO)[C@H]3OC(=O)/C=C/c3ccc(O)cc3)O[C@H]2C)[C@H](O)[C@H](O)[C@H]1O [Compound 7, ligupurpuroside B]
α-Amylase Inhibition at 0.1 mM (α-amylase): 19.9 ± 1.8 d % | IC50 [1]: 2.75 ± 0.09 µM | IC50 [2]: > 250 µM

CC1OC(OC2C(O)C(OCc3ccccc3)OC(CO)C2OC(=O)C=Cc2ccc(O)cc2)C(O)C(O)C1O (stereo not drawn) [Compound 4]
IC50 (FAS): 6.49 ± 0.27 µM

O=C1O[C@H]([C@@H](O)CO)C(O)=C1O [L-(+)-ascorbic acid, reference compound]
IC50 [1]: 10.1 ± 0.19 µM | IC50 [2]: 13.66 ± 0.13 µM

C[C@@H]1O[C@@H](O[C@@H]2[C@@H](O)[C@H](OCc3ccccc3)O[C@H](COC(=O)/C=C\c3ccc(O)cc3)[C@H]2O)[C@H](O)[C@H](O)[C@H]1O [Compound 6, benzyl 3-O-(α-L-rhamnopyranosyl)-6-O-(cis-p-coumaroyl)-O-β-D-glucopyranoside]
α-Glucosidase Inhibition at 0.1 mM (α-Glucosidase from yeast): 36.5 ± 1.5 c % | IC50 [1]: 20.7 ± 0.22 µM

C[C@@H]1O[C@@H](O[C@@H]2[C@@H](O)[C@H](OCc3ccccc3)O[C@H](COC(=O)/C=C/c3ccc(O)cc3)[C@H]2O)[C@H](O)[C@H](O)[C@H]1O [Compound 5, benzyl 3-O-(α-L-rhamnopyranosyl)-6-O-(trans-p-coumaroyl)-O-β-D-glucopyranoside]
α-Glucosidase Inhibition at 0.1 mM (α-Glucosidase from yeast): 45.1 ± 2.5 b % | α-glucosidase inhibitory effects (in words) (α-Glucosidase from yeast): moderate | IC50 [1]: 4.86 ± 0.06 µM | IC50 [2]: > 250 µM

C[C@@H]1O[C@@H](O[C@@H]2[C@@H](O)[C@@H](O)[C@H](O[C@@H]3[C@@H](O)[C@H](OCC(=O)c4ccc(O)c(O)c4)O[C@H](CO)[C@H]3OC(=O)/C=C/c3ccc(O)cc3)O[C@H]2C)[C@H](O)[C@H](O)[C@H]1O [Compound 3, 2-(3,4-dihydroxyphenyl)-2-oxoethyl 3-O-[α-L-rhamnopyranosyl-(1→4)-α-L-rhamnopyranosyl]-4-O-(trans-p-coumaroyl)-O-β-D-glucopyranoside]
α-Glucosidase Inhibition at 0.1 mM (α-Glucosidase from yeast): 42.3 ± 8.7 bc % | α-glucosidase inhibitory effects (in words) (α-Glucosidase from yeast): moderate | IC50 [1]: 4.13 ± 0.06 µM | IC50 [2]: 23.8 ± 0.89 µM

CC1OC(OC2C(C)OC(OC3C(O)C(OCCc4ccc(O)cc4)OC(CO)C3OC(=O)C=Cc3ccc(O)cc3)C(O)C2O)C(O)C(O)C1O (stereo not drawn) [Compound 8, cis-ligupurpuroside B]
IC50 [1]: 4.17 ± 0.06 µM | IC50 [2]: > 250 µM
